Source: patent US7820196B2, “Physiologically active agents containing vicinal dithioglycols and use thereof in various branches of economy” (priority 1999, dated 2010)
Several values for one entry are separate records, joined by “and”; a condition that tells them apart may be missing. Equal entries are not always repeated.

Tests used:
broilers = test: Example 5: broilers fed basic ration plus Unithiol; assay type: in vivo
Procedure: A full-ration mixed-fodder was checked for the absence of pathogens and used for feeding broilers. Thirty 15 days broilers were divided into one control and 4 experimental groups having 6 chickens each (3 male and 3 female chickens). Poultry were kept in a four-deck pen. The conditions of feeding such as the basic ration (BR) and the addition of Unithiol according to the protocol were as follows:
Experimental group 1: BR+1.3 mg of “Unithiol” per 1 kg of the body weight;
Experimental group 2: BR+1.7 mg of “Unithiol” per 1 kg of the body weight;
Experimental group 3: BR+2.1 mg of “Unithiol” per 1 kg of the body weight;
Experimental group 4: BR+2.5 mg of “Unithiol” per 1 kg of the body weight.
Feeding was performed in accordance with experimental protocol; broilers received water ad libitum; the experiment was carried out for 42 days.

[1] = test system: participants (males and females) taking 1 l dark beer every evening; test: Example 7: hangover and biochemical indices in participants taking dark beer with Unithiol or placebo; assay type: in vivo, human; settings: for MDA (urine) / ALT (blood) / AST (blood) / SH-gr. (blood) / Triglycerides (blood) / Urate (blood) / Vit. A (blood) / Vit. E (blood): one value per participant
Source text: The tests were held upon the offer's proposal. The Moscow scientific and practical Center for the drug prophylactic of the Moscow health Administration was taken as the base for it.
The experiment was schemed as follows. The participants were taken from males and females of different age groups and different alcohol intake habits.
The control group remained as an intact one.
The experimental group—1—took in 1 l. of a dark beer of the “Klinskoie” type every evening from the X^th day till the X+13th day. That group took in the placebo every morning from the X+1th day till X+7th day, and every morning it took in from the X+8th day till X+14th day the solution of 250 mg of Unithiol in 100 g of drinking water.
The experimental group—2—took in 1 l. of a dark beer of the “Klinskoie” type every evening from the X^th day till the X+13th day. That group took in the solution of 250 mg of Unithiol in 100 g of drinking water every morning from the X+1th day till X+7th day, and every morning it took in the placebo from the X+8th day till X+14th day.
The measurements of the biochemical indices were taken in the mornings in every group, and in the control groups—after 30 minutes of placebo or Unithiol intake.
The following indices of the level of the per oxidation of lipids and the condition of the liver and the brain tissues were measured: • MDA—malondialdehyde • Triglycerides • Endogenous antioxidants: • Vit. A—vitamin A • Vit. E—vitamin E • Urate—serum urate • SH-gr.—SH-groups • Aminotransferase: • ALT—lanine aminotransferase • AST—aspartate aminotransferase

broiler chickens = test: Example 6: effect of unithiol on accumulation of heavy metal compounds in tissues of poultry; assay type: in vivo
Procedure: An experiment was conducted, on the inventors' initiative, on the experimental base of the All-Russia research and technological institute for aviculture (VNITIP) during which a study was given to the following tasks: • determination of an effect produced by unithiol (DMPS) on the productivity and meat quality of broiler chickens; • effect produced by unithiol on the accumulation of heavy metal compounds (mercury, cadmium, lead) in various tissues of poultry.
The experiment was carried out in a vivarium on broiler chickens of one cross. Poultry was grown in cell batteries from one day to six-week age. The operating parameters and feeding level met the recommendation VNITIP 1999. The experiment was conducted according to the diagram on Table 1.
The poultry population: 1 and 2 groups, 35 heads each; 3,4,5 groups—6 heads each.
13. Contained heavy metal residual compounds (mercury, cadmium, lead) in mixed feed for the broilers.
14. Evaluation of the level of meat contamination and internal organs (liver and kidneys) of the broilers with heavy metal salts.

[2] = about 1.7 mg Unithiol per 1 kg of body weight in ration
[3] = day X+7, Experimental group 2: beer every evening, 250 mg Unithiol mornings X+1 to X+7
[4] = day X+14, Experimental group 1: beer every evening, 250 mg Unithiol mornings X+8 to X+14
[5] = Group 2: BR + 17 mg unithiol/kg feed days 15-42
[6] = Group 4: BR + heavy metals + 17 mg unithiol/kg feed, both days 15-42
[7] = Group 5: BR + heavy metals days 15-35, 34 mg unithiol/kg feed days 36-42

O=S(=O)([O-])CC(S)CS.[Na+] (centres unmarked) [Unithiol, Sodium 2,3-Dimercaptopropane sulfonate]
feathering condition (broilers; Unithiol in ration): Feathering condition improvement
fodder consumption (broilers; Unithiol in ration): increased fodder consumption
average weight gain (broilers; [2]): up to 35.8 g per day
gain rate, % from that in the control group (broilers; [2]): 145.9%
growth stimulating effect (broilers; about 1.7 mg per 1 kg of body weight in ration, beginning from the 15th day): growth stimulating effect
level of cadmium, zinc, lead and copper in meat and liver, lower than control group (broilers; experimental groups, 1.3-2.5 mg Unithiol per kg body weight): about 1.5 times
time to full hangover alleviating after intake ([1]; 250 mg Unithiol in 100 g drinking water in the morning after 1 l dark beer in the evening): 5 to 10 min
toxic activity of ethanol and products of its incomplete oxidation (carbonyl compounds) to liver and brain tissue ([1]; Unithiol intake during alcohol intake): reduce almost to the whole extent
MDA (urine) ([1]; day X+2, Experimental group 2: 1 l dark beer every evening, 250 mg Unithiol mornings X+1 to X+7): 0.62 nM/ml and 0.45 nM/ml (2×) and 0.47 nM/ml and 0.43 nM/ml and 0.99 nM/ml and 0.67 nM/ml
MDA (urine) ([1]; day X+4, Experimental group 2: beer every evening, 250 mg Unithiol mornings X+1 to X+7): 0.60 nM/ml and 0.58 nM/ml (2×) and 0.42 nM/ml and 0.51 nM/ml and 0.88 nM/ml and 0.53 nM/ml
ALT (blood) [1, 3]: 61 nmol (sec. 1) and 50 nmol (sec. 1) (2×) and 37 nmol (sec. 1) and 46 nmol (sec. 1) and 190 nmol (sec. 1) and 39 nmol (sec. 1)
AST (blood) [1, 3]: 48 nmol (sec. 1) and 46 nmol (sec. 1) and 31 nmol (sec. 1) and 41 nmol (sec. 1) and 37 nmol (sec. 1) and 172 nmol (sec. 1) and 30 nmol (sec. 1)
MDA (urine) [1, 3]: 0.55 nM/ml and 0.43 nM/ml and 0.49 nM/ml and 0.42 nM/ml and 0.38 nM/ml and 0.89 nM/ml and 0.56 nM/ml
SH-gr. (blood) [1, 3]: 378 MKM and 389 MKM (2×) and 383 MKM and 380 MKM and 197 MKM and 354 MKM
Triglycerides (blood) [1, 3]: 0.80 mmoi/l and 0.59 mmoi/l and 0.44 mmoi/l and 0.43 mmoi/l and 0.41 mmoi/l and 1.73 mmoi/l and 0.42 mmoi/l
Urate (blood) [1, 3]: 268 MKM and 267 MKM and 311 MKM and 295 MKM and 280 MKM and 208 MKM and 279 MKM
Vit. A (blood) [1, 3]: 1.9 µg/mL and 2.2 µg/mL and 2.8 µg/mL and 2.3 µg/mL and 2.7 µg/mL and 0.6 µg/mL and 1.6 µg/mL
Vit. E (blood) [1, 3]: 2.6 µg/mL and 3.3 µg/mL and 3.1 µg/mL and 3.8 µg/mL and 3.2 µg/mL and 1.0 µg/mL and 2.4 µg/mL
MDA (urine) ([1]; day X+9, Experimental group 1: 1 l dark beer every evening, placebo mornings X+1 to X+7, 250 mg Unithiol mornings X+8 to X+14): 0.7 nM/ml and 1.0 nM/ml and 0.90 nM/ml and 0.82 nM/ml
MDA (urine) ([1]; day X+11, Experimental group 1: beer every evening, 250 mg Unithiol mornings X+8 to X+14): 0.63 nM/ml and 0.80 nM/ml and 0.72 nM/ml and 0.54 nM/ml
ALT (blood) [1, 4]: 52 nmol (sec. 1) and 58 nmol (sec. 1) and 45 nmol (sec. 1) and 42 nmol (sec. 1)
AST (blood) [1, 4]: 41 nmol (sec. 1) and 50 nmol (sec. 1) and 40 nmol (sec. 1) and 35 nmol (sec. 1)
MDA (urine) [1, 4]: 0.69 nM/ml and 0.82 nM/ml and 0.64 nM/ml and 0.53 nM/ml
SH-gr. (blood) [1, 4]: 384 MKM and 375 MKM and 389 MKM and 392 MKM
Triglycerides (blood) [1, 4]: 0.65 mmoi/l and 0.59 mmoi/l and 0.71 mmoi/l and 0.64 mmoi/l
Urate (blood) [1, 4]: 265 MKM and 253 MKM and 285 MKM and 279 MKM
Vit. A (blood) [1, 4]: 1.4 mcg/ml (2×) and 1.2 mcg/ml and 2.1 mcg/ml
Vit. E (blood) [1, 4]: 2.8 µg/mL and 2.1 µg/mL and 2.2 µg/mL and 1.7 µg/mL
Heavy metal content: cadmium, kidneys (broiler chickens; [5]): 0.078 mg/kg
Heavy metal content: cadmium, liver (broiler chickens; [5]): 0.049 mg/kg
Heavy metal content: lead, kidneys (broiler chickens; [5]): 0.67 mg/kg
Heavy metal content: lead, liver (broiler chickens; [5]): 0.40 mg/kg
Heavy metal content: mercury, kidneys (broiler chickens; [5]): 0.055 mg/kg
Heavy metal content: mercury, liver (broiler chickens; [5]): 0.039 mg/kg
Heavy metal content: zinc, kidneys (broiler chickens; [5]): 95.3 mg/kg
Heavy metal content: zinc, liver (broiler chickens; [5]): 104.1 mg/kg
Heavy metal content: zinc, muscular tissue (broiler chickens; [5]): 50.2 mg/kg
Heavy metal content: cadmium, kidneys (broiler chickens; [6]): 3.76 mg/kg
Heavy metal content: cadmium, liver (broiler chickens; [6]): 2.98 mg/kg
Heavy metal content: cadmium, muscular tissue (broiler chickens; [6]): 0.37 mg/kg
Heavy metal content: lead, kidneys (broiler chickens; [6]): 8.50 mg/kg
Heavy metal content: lead, liver (broiler chickens; [6]): 4.80 mg/kg
Heavy metal content: lead, muscular tissue (broiler chickens; [6]): 0.83 mg/kg
Heavy metal content: mercury, kidneys (broiler chickens; [6]): 2.00 mg/kg
Heavy metal content: mercury, liver (broiler chickens; [6]): 2.18 mg/kg
Heavy metal content: mercury, muscular tissue (broiler chickens; [6]): 0.375 mg/kg
Heavy metal content: zinc, kidneys (broiler chickens; [6]): 103.1 mg/kg
Heavy metal content: zinc, liver (broiler chickens; [6]): 107.2 mg/kg
Heavy metal content: zinc, muscular tissue (broiler chickens; [6]): 50.4 mg/kg
Heavy metal content: cadmium, kidneys (broiler chickens; [7]): 2.97 mg/kg
Heavy metal content: cadmium, liver (broiler chickens; [7]): 2.30 mg/kg
Heavy metal content: cadmium, muscular tissue (broiler chickens; [7]): 0.24 mg/kg
Heavy metal content: lead, kidneys (broiler chickens; [7]): 7.00 mg/kg
Heavy metal content: lead, liver (broiler chickens; [7]): 3.40 mg/kg
Heavy metal content: lead, muscular tissue (broiler chickens; [7]): 0.54 mg/kg
Heavy metal content: mercury, kidneys (broiler chickens; [7]): 1.05 mg/kg
Heavy metal content: mercury, liver (broiler chickens; [7]): 1.12 mg/kg
Heavy metal content: mercury, muscular tissue (broiler chickens; [7]): 0.328 mg/kg
Heavy metal content: zinc, kidneys (broiler chickens; [7]): 98.2 mg/kg
Heavy metal content: zinc, liver (broiler chickens; [7]): 104.3 mg/kg
Heavy metal content: zinc, muscular tissue (broiler chickens; [7]): 50.3 mg/kg
heavy metal salt content in the depositing organs and meat (broiler chickens; use of unithiol): considerably reduce a heavy metal salt content
